This note sets out measurements from patent US12139520B2 (priority 2020, dated 2024).

SMILES strings stand for the structures. Bridge positions count the residues as written; N and C are the ends. Square brackets hold non-standard residues; d marks the D form. Peptide text beside a SMILES is read from it. Hyp = O=C(O)[C@@H]1C[C@@H](O)CN1; Cit = NC(=O)NCCC[C@H](N)C(=O)O

Broadly, the EC50 is the concentration needed to bring the measured effect to its halfway point.

Data set [1] can be described thus: Physical stability of peptide analogues (Thioflavin T fibrillation). The data set is classed as physicochemical. Particulars: maximum ThT signal normalized between hAMY maximum and buffer background; 40° C., shaking, four days; pH 7 per table title. The method, boiled down:
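Peptides in 50 mM sodium acetate pH 4 or 50 mM sodium phosphate pH 7 were preincubated 1 h, mixed with 4 μM ThT, held at 40° C with 700 rpm shaking before each read. Fluorescence (ex 450/em 480 nm) every 10 min for four days; LOESS-smoothed maximum signal normalized in percent between hAMY and buffer.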

Data set [2] addresses T1, hAMY3 receptor (Homo sapiens, UniProt O60896+P30988).
T1 sequence (P30988 25-474): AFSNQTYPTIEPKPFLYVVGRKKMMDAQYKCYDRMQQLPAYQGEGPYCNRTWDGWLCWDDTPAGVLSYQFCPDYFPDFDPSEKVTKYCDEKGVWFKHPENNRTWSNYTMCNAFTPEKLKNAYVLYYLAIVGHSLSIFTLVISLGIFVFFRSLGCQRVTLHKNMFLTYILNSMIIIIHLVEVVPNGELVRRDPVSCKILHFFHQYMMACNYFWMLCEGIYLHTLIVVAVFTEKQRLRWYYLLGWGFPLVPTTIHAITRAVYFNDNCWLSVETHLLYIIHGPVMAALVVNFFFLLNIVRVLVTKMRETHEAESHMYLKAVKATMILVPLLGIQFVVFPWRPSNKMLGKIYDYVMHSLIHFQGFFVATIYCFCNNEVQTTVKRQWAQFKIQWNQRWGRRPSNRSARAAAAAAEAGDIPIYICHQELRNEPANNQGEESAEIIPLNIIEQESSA
T1 sequence (O60896 24-148 partner): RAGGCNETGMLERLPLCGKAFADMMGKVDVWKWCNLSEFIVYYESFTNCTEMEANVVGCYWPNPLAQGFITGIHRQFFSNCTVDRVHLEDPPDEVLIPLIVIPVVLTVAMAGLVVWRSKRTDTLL
Kind of data set: cAMP assay for in vitro receptor activation, hAMY3-R. The format is cell-based. Particulars: cAMP assay, hAMY3 receptor; read-out: hAMY3R EC50. The method, boiled down: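 Stable hAMY3 cells; DPBS + 0.05% casein + 0.5 mM IBMX; graded compound doses, 30 min, RT; cAMP via HTRF Gs kit, TR-FRET read at 1 h.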
(Changes in cAMP serve as a functional read-out for many G protein-coupled receptors.)

On to `CC[C@H](C)[C@H](NC(=O)[C@H](CCC(N)=O)NC(=O)[C@H](Cc1c[nH]cn1)NC(=O)[C@H](C)NC(=O)[C@H](CC(C)C)NC(=O)[C@H](CCCNC(=N)N)NC(=O)[C@H](CCC(N)=O)NC(=O)[C@@H](NC(=O)[C@@H](NC(=O)[C@@H]1CSSC[C@H](NC(=O)CN)C(=O)N[C@@H](CCCNC(=N)N)C(=O)N[C@@H]([C@@H](C)O)C(=O)NCC(=O)N[C@@H]([C@@H](C)O)C(=O)N1)[C@@H](C)O)C(C)C)C(=O)N[C@@H](Cc1ccc(O)cc1)C(=O)N[C@@H](CCC(N)=O)C(=O)N[C@@H](Cc1ccccc1)C(=O)N[C@H](C(=O)N[C@@H](CC(=O)O)C(=O)N[C@@H](CCCCN)C(=O)N[C@@H](CC(=O)O)C(=O)N[C@@H](CCCCN)C(=O)N[C@@H](CC(=O)O)C(=O)N[C@@H](CC(N)=O)C(=O)N[C@H](C(=O)N[C@@H](C)C(=O)N1CCC[C@H]1C(=O)N[C@@H](CCCNC(=N)N)C(=O)N[C@@H](CO)C(=O)N[C@@H](CC(N)=O)C(=O)N[C@H](C(=O)NCC(=O)N1CCC[C@H]1C(=O)N[C@@H](CCC(N)=O)C(=O)NCC(=O)N1C[C@H](O)C[C@H]1C(N)=O)C(C)C)C(C)C)[C@@H](C)O` [compound 121] (H-GCRTGTCTVQRLAHQIYQFTDKDKDNVAPRSNVGPQG[Hyp]-NH2; disulfide 2-7; N-terminus assumed), for which the “Max ThT signal (%)” value in data set [1] was determined as 1.800%. In addition, in data set [2], the EC50 worked out at 0.026 nM.
Taken in the same sequence, the figures for `CC[C@H](C)[C@H](NC(=O)[C@H](CC(N)=O)NC(=O)[C@@H](NC(=O)[C@H](CCCNC(=N)N)NC(=O)[C@@H]1CCCN1C(=O)[C@H](C)NC(=O)[C@@H](NC(=O)[C@H](CC(N)=O)NC(=O)[C@H](CC(=O)O)NC(=O)[C@H](CCCCN)NC(=O)[C@H](CC(=O)O)NC(=O)[C@H](CCCCN)NC(=O)[C@H](CC(=O)O)NC(=O)[C@@H](NC(=O)[C@H](Cc1ccccc1)NC(=O)[C@H](CCC(N)=O)NC(=O)[C@H](Cc1ccc(O)cc1)NC(=O)[C@@H](NC(=O)[C@H](CCC(N)=O)NC(=O)[C@H](Cc1c[nH]cn1)NC(=O)[C@H](C)NC(=O)[C@H](CC(C)C)NC(=O)[C@H](Cc1c[nH]c2ccccc12)NC(=O)[C@H](CCC(N)=O)NC(=O)[C@@H](NC(=O)[C@@H](NC(=O)[C@@H]1CSSC[C@H](NC(=O)CN)C(=O)N[C@@H](CCCNC(=N)N)C(=O)N[C@@H](Cc2ccccc2)C(=O)NCC(=O)N[C@@H]([C@@H](C)O)C(=O)N1)[C@@H](C)O)C(C)C)[C@@H](C)CC)[C@@H](C)O)C(C)C)[C@@H](C)O)C(=O)NCC(=O)N1CCC[C@H]1C(=O)N[C@@H](CC(N)=O)C(=O)NCC(=O)N1C[C@H](O)C[C@H]1C(N)=O` [compound 331] (H-GCRFGTCTVQWLAHQIYQFTDKDKDNVAPRTNIGPNG[Hyp]-NH2; disulfide 2-7; N-terminus assumed) were 21.150% and 0.006 nM.
Taken in the same sequence, the figures for `CC[C@H](C)[C@H](NC(=O)[C@H](CCC(N)=O)NC(=O)[C@H](Cc1c[nH]cn1)NC(=O)[C@H](C)NC(=O)[C@H](CC(C)C)NC(=O)[C@H](CCCNC(=N)N)NC(=O)[C@H](CCC(N)=O)NC(=O)[C@@H](NC(=O)[C@@H](NC(=O)[C@@H]1CSSC[C@H](NC(=O)CN)C(=O)N[C@@H](CCCNC(=N)N)C(=O)N[C@@H]([C@@H](C)O)C(=O)NCC(=O)N[C@@H]([C@@H](C)O)C(=O)N1)[C@@H](C)O)C(C)C)C(=O)N[C@@H](Cc1ccc(O)cc1)C(=O)N[C@@H](CCC(N)=O)C(=O)N[C@@H](Cc1ccccc1)C(=O)N[C@H](C(=O)N[C@@H](CC(=O)O)C(=O)N[C@@H](CCCCN)C(=O)N[C@@H](CC(=O)O)C(=O)N[C@@H](CCCCN)C(=O)N[C@@H](CC(=O)O)C(=O)N[C@@H](CC(N)=O)C(=O)N[C@H](C(=O)N[C@@H](C)C(=O)N1CCC[C@H]1C(=O)N[C@@H](CCCNC(=N)N)C(=O)N[C@H](C(=O)N[C@@H](CC(N)=O)C(=O)N[C@H](C(=O)NCC(=O)N1CCC[C@H]1C(=O)N[C@@H](CCC(N)=O)C(=O)NCC(=O)N[C@@H](Cc1ccc(O)cc1)C(N)=O)C(C)C)[C@@H](C)O)C(C)C)[C@@H](C)O` [compound 109] (H-GCRTGTCTVQRLAHQIYQFTDKDKDNVAPRTNVGPQGY-NH2; disulfide 2-7; N-terminus assumed) were 9.300% and 0.02 nM.
In the case of `CC(C)C[C@H](NC(=O)[C@H](CCCNC(N)=O)NC(=O)[C@H](CCC(N)=O)NC(=O)[C@@H](NC(=O)[C@@H](NC(=O)[C@@H]1CSSC[C@H](NC(=O)CN)C(=O)N[C@@H](CCCNC(=N)N)C(=O)N[C@@H](Cc2ccccc2)C(=O)NCC(=O)N[C@@H]([C@@H](C)O)C(=O)N1)[C@@H](C)O)C(C)C)C(=O)N[C@@H](C)C(=O)N[C@@H](Cc1c[nH]cn1)C(=O)N[C@@H](Cc1ccccc1)C(=O)N[C@@H](CC(C)C)C(=O)N[C@@H](Cc1ccc(O)cc1)C(=O)N[C@@H](CCC(N)=O)C(=O)N[C@@H](Cc1ccccc1)C(=O)N[C@H](C(=O)N[C@@H](CC(=O)O)C(=O)N[C@@H](CCCCN)C(=O)N[C@@H](CC(=O)O)C(=O)N[C@@H](CCCCN)C(=O)N[C@@H](CC(=O)O)C(=O)N[C@@H](CC(N)=O)C(=O)N[C@H](C(=O)N[C@@H](C)C(=O)N1CCC[C@H]1C(=O)N[C@@H](CCCNC(=N)N)C(=O)N[C@H](C(=O)N[C@@H](CCCCN)C(=O)N[C@H](C(=O)NCC(=O)N[C@@H](CO)C(=O)N[C@@H](CC(N)=O)C(=O)NCC(=O)N[C@@H](Cc1ccc(O)cc1)C(N)=O)C(C)C)[C@@H](C)O)C(C)C)[C@@H](C)O` [compound 279] (H-GCRFGTCTVQ[Cit]LAHFLYQFTDKDKDNVAPRTKVGSNGY-NH2; disulfide 2-7; N-terminus assumed), the “Max ThT signal (%)” value in data set [1] is on record as 13.450%. In addition, the half-maximal effective concentration (EC50) in data set [2] came out at 0.013 nM.
Taken in the same sequence, the figures for `CC[C@H](C)[C@H](NC(=O)[C@H](CCC(N)=O)NC(=O)[C@H](Cc1c[nH]cn1)NC(=O)[C@H](C)NC(=O)[C@H](CC(C)C)NC(=O)[C@H](CCCNC(=N)N)NC(=O)[C@H](CCC(N)=O)NC(=O)[C@@H](NC(=O)[C@@H](NC(=O)[C@@H]1CSSC[C@H](NC(=O)CN)C(=O)N[C@@H](CCCNC(=N)N)C(=O)N[C@@H](Cc2ccccc2)C(=O)NCC(=O)N[C@@H]([C@@H](C)O)C(=O)N1)[C@@H](C)O)C(C)C)C(=O)N[C@@H](Cc1ccc(O)cc1)C(=O)N[C@@H](CCC(N)=O)C(=O)N[C@@H](Cc1ccccc1)C(=O)N[C@H](C(=O)N[C@@H](CC(=O)O)C(=O)N[C@@H](CCCCN)C(=O)N[C@@H](CC(=O)O)C(=O)N[C@@H](CCCCN)C(=O)N[C@@H](CC(=O)O)C(=O)N[C@@H](CC(N)=O)C(=O)N[C@H](C(=O)N[C@@H](C)C(=O)N1CCC[C@H]1C(=O)N[C@@H](CCCNC(=N)N)C(=O)N[C@H](C(=O)N[C@@H](CC(N)=O)C(=O)N[C@H](C(=O)N[C@@H](CO)C(=O)N1CCC[C@H]1C(=O)N[C@@H](CCC(N)=O)C(=O)NCC(=O)N1C[C@H](O)C[C@H]1C(N)=O)C(C)C)[C@@H](C)O)C(C)C)[C@@H](C)O` [compound 125] (H-GCRFGTCTVQRLAHQIYQFTDKDKDNVAPRTNVSPQG[Hyp]-NH2; disulfide 2-7; N-terminus assumed) were 7.200% and 0.027 nM.
Taken in the same sequence, the figures for `CC[C@H](C)[C@H](NC(=O)[C@H](CCC(N)=O)NC(=O)[C@H](Cc1c[nH]cn1)NC(=O)[C@H](C)NC(=O)[C@H](CC(C)C)NC(=O)[C@H](CCCNC(=N)N)NC(=O)[C@H](CCC(N)=O)NC(=O)[C@@H](NC(=O)[C@@H](NC(=O)[C@@H]1CSSC[C@H](NC(=O)CN)C(=O)N[C@@H](CCCNC(=N)N)C(=O)N[C@@H]([C@@H](C)O)C(=O)NCC(=O)N[C@@H]([C@@H](C)O)C(=O)N1)[C@@H](C)O)C(C)C)C(=O)N[C@@H](Cc1ccc(O)cc1)C(=O)N[C@@H](CCC(N)=O)C(=O)N[C@@H](Cc1ccccc1)C(=O)N[C@H](C(=O)N[C@@H](CC(=O)O)C(=O)N[C@@H](CCCCN)C(=O)N[C@@H](CC(=O)O)C(=O)N[C@@H](CCCCN)C(=O)N[C@@H](CC(=O)O)C(=O)N[C@@H](CC(N)=O)C(=O)N[C@H](C(=O)N[C@@H](C)C(=O)N1CCC[C@H]1C(=O)N[C@@H](CCCNC(=N)N)C(=O)N[C@@H](CO)C(=O)N[C@@H](CCCCN)C(=O)N[C@H](C(=O)NCC(=O)N1CCC[C@H]1C(=O)N[C@@H](CC(N)=O)C(=O)NCC(=O)N1C[C@H](O)C[C@H]1C(N)=O)C(C)C)C(C)C)[C@@H](C)O` [compound 139] (H-GCRTGTCTVQRLAHQIYQFTDKDKDNVAPRSKVGPNG[Hyp]-NH2; disulfide 2-7; N-terminus assumed) were 4.800% and 0.035 nM.
